Test results: ChEMBL document CHEMBL1135845, “N-(arylacetyl)-biphenylalanines as potent VLA-4 antagonists” (Bioorg Med Chem Lett, 2002)

Experiments:
[1] = Bioavailability in rat (Sprague-Dawley) (dose 1 mg/kg i.v. and 2 mg/kg p.o.); type: ADME, organism-based; details: in vivo, po
Integrin alpha-4/beta-7 = biological target: T1, Integrin alpha-4/beta-7 (Homo sapiens, UniProt P13612+P26010); experiment: Inhibition of alpha4-beta7 integrin binding to radiolabeled vascular cell adhesion molecule-1 (VCAM-1) Ig fusion protein in human Jurkat cells; type: cell-based
T1 sequence (P13612 whole entry): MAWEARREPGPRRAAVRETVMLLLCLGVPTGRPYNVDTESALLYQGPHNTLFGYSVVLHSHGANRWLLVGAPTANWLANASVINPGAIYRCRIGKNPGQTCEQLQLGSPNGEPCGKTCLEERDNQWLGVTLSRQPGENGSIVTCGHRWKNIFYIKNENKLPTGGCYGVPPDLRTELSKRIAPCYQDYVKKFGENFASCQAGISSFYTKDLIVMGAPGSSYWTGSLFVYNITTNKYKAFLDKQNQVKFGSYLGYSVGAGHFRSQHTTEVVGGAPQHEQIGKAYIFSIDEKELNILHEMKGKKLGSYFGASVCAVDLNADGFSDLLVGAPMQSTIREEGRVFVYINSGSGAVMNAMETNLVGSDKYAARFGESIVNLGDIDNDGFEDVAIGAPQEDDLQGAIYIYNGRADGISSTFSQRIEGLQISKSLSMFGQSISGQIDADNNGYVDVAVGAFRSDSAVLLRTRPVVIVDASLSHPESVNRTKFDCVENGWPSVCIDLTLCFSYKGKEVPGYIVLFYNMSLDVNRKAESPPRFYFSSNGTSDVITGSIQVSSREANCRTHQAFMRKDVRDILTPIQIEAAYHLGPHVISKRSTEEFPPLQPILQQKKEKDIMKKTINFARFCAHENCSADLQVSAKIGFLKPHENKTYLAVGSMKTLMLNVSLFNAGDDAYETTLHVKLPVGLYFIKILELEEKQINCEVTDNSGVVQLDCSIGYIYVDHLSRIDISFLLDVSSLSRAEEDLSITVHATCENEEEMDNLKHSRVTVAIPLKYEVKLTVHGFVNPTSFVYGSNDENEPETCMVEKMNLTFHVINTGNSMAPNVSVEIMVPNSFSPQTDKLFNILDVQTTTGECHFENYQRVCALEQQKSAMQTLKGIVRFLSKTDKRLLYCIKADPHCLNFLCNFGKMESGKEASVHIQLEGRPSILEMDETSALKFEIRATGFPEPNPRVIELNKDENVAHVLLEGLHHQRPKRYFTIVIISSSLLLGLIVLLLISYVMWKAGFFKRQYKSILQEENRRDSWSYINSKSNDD
T1 sequence (P26010 whole entry): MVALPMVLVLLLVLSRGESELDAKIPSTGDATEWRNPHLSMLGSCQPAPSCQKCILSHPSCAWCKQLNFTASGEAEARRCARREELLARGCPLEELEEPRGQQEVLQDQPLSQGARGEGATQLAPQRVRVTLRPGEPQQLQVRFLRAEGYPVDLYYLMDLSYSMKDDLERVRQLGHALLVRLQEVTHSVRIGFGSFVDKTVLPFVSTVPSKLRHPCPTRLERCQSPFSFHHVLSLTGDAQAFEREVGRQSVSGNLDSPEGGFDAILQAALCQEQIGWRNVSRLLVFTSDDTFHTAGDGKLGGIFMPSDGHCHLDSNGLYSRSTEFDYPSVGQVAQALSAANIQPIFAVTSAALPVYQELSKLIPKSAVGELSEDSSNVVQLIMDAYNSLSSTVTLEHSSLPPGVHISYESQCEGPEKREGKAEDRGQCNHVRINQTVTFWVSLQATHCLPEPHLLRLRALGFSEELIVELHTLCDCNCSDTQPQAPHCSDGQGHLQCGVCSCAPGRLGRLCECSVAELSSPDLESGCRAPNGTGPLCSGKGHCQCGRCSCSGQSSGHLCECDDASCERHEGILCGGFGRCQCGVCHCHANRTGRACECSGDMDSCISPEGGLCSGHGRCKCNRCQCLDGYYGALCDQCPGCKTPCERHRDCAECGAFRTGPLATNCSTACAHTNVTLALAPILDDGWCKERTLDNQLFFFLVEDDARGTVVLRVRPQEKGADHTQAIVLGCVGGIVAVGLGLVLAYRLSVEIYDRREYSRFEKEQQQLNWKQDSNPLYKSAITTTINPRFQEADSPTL

[2] = Inhibition of VLA-4 binding to radiolabeled vascular cell adhesion molecule-1 (VCAM-1) Ig fusion protein in human Jurkat cells; type: cell-based
[3] = Plasma half-life was determined in Sprague-Dawley rats after 0-8 h administration of the compound; type: ADME, organism-based; details: rat
[4] = Plasma clearance rate in Sprague-Dawley rats; type: ADME, organism-based; details: rat, read-out: Clp

Row | bioavailability [1] | IC50 (Integrin alpha-4/beta-7) | IC50 [2] | half-life [3] | clearance [4] | Compound
1 | 35% | 9.9 nM | 0.5 nM | 66 min | 24 mL/min/kg | COc1ccccc1-c1ccc(C[C@H](NC(=O)C2(c3cccnc3)CCCC2)C(=O)O)cc1
2 | 6% | 158 nM | 1.4 nM | 24 min | 82 mL/min/kg | COc1ccccc1-c1ccc(C[C@H](NC(=O)C2(c3cccnc3)CCCCC2)C(=O)O)cc1
3 | – | 94 nM | 0.7 nM | – | – | COc1ccccc1-c1ccc(C[C@H](NC(=O)C2(c3cccnc3)CCC(C)C2)C(=O)O)cc1 (mixture of isomers)
4 | 1% | 26 nM | 1.4 nM | – | > 100 mL/min/kg | COc1ccccc1-c1ccc(C[C@H](NC(=O)C2(c3ccc(O)nc3)CCCC2)C(=O)O)cc1
5 | 55% | 110 nM | 3.2 nM | 60 min | 21.5 mL/min/kg | COc1ccccc1-c1ccc(C[C@H](NC(=O)C2(c3ccccc3)CCCC2)C(=O)O)cc1
6 | < 1% | 215 nM | 3 nM | – | > 100 mL/min/kg | COc1ccccc1-c1ccc(C[C@H](NC(=O)C2(c3ccccn3)CCCC2)C(=O)O)cc1
7 | – | – | 607 nM | – | – | COc1ccccc1-c1ccc(C[C@H](NC(=O)Cc2ccc(-c3ccccc3)cc2)C(=O)O)cc1
8 | – | 30 nM | 0.7 nM | – | – | COc1ccccc1-c1ccc(C[C@H](NC(=O)C2(c3cccnc3)CCN(C(C)=O)CC2)C(=O)O)cc1
9 | – | – | 15.8 nM | – | – | COc1ccccc1-c1ccc(C[C@H](NC(=O)Cc2ccccn2)C(=O)O)cc1
10 | – | 16.7 nM | 0.9 nM | – | – | COc1ccccc1-c1ccc(C[C@H](NC(=O)C2(c3cccnc3)CC=CC2)C(=O)O)cc1
11 | – | – | 12.2 nM | – | – | COc1ccccc1-c1ccc(C[C@H](NC(=O)Cc2ccncc2)C(=O)O)cc1
12 | – | – | 16.6 nM | – | – | COc1ccccc1-c1ccc(C[C@H](NC(=O)Cc2ccc(Cl)cc2Cl)C(=O)O)cc1
13 | – | – | 6.15 nM | – | – | COc1ccccc1-c1ccc(C[C@H](NC(=O)Cn2cnc(Cl)c2Cl)C(=O)O)cc1
14 | – | 15 nM | 0.8 nM | – | – | COc1cc(C2(C(=O)N[C@@H](Cc3ccc(-c4ccccc4OC)cc3)C(=O)O)CCCC2)ccn1
15 | – | – | 145 nM | – | – | COc1ccccc1-c1ccc(C[C@H](NC(=O)Cc2cccc3ccccc23)C(=O)O)cc1
16 | – | – | 264 nM | – | – | COc1ccccc1-c1ccc(C[C@H](NC(=O)Cc2ccccc2)C(=O)O)cc1
17 | – | 33 nM | 0.5 nM | – | – | COc1ccccc1-c1ccc(C[C@H](NC(=O)C2(c3ccnnc3)CCCC2)C(=O)O)cc1
18 | – | 120 nM | 9.8 nM | – | – | COc1ccccc1-c1ccc(C[C@H](NC(=O)C2(c3cncc4ccccc34)CCCC2)C(=O)O)cc1
19 | 12% | 36.3 nM | 1.3 nM | 18 min | > 100 mL/min/kg | COc1ccccc1-c1ccc(C[C@H](NC(=O)C2(c3ccc(C)nc3)CCCC2)C(=O)O)cc1
20 | – | – | 801 nM | – | – | COc1ccccc1-c1ccc(C[C@H](NC(=O)Cc2ccc3ccccc3c2)C(=O)O)cc1
21 | – | – | 315 nM | – | – | COc1ccccc1-c1ccc(C[C@H](NC(=O)Cc2ccc(Cl)cc2)C(=O)O)cc1
22 | – | – | 12.9 nM | – | – | COc1ccccc1-c1ccc(C[C@H](NC(=O)Cc2cccnc2)C(=O)O)cc1
23 | – | – | 7.1 nM | – | – | COc1ccccc1-c1ccc(C[C@H](NC(=O)C(OC)c2ccccc2)C(=O)O)cc1 (some centres undefined)

Row | bioavailability [1] | IC50 (Integrin alpha-4/beta-7) | IC50 [2] | half-life [3] | clearance [4] | Compound
24 | – | – | 36.8 nM | – | – | COc1ccccc1-c1ccc(C[C@H](NC(=O)Cc2ccccc2Cl)C(=O)O)cc1
25 | – | – | 14.4 nM | – | – | COc1ccccc1-c1ccc(C[C@H](NC(=O)Cn2cnnn2)C(=O)O)cc1
26 | – | – | 4.8 nM | – | – | COc1ccccc1-c1ccc(C[C@H](NC(=O)Cc2ccccc2[N+](=O)[O-])C(=O)O)cc1
27 | – | 98 nM | 3.9 nM | – | – | COc1ccccc1-c1ccc(C[C@H](NC(=O)C2(c3cnc4ccccc4c3)CCCC2)C(=O)O)cc1
28 | – | – | 6.5 nM | – | – | COc1ccccc1-c1ccc(C[C@H](NC(=O)C2(c3ccccc3)CCCCC2)C(=O)O)cc1
29 | – | – | 246 nM | – | – | COc1ccccc1-c1ccc(C[C@H](NC(=O)Cc2cccc(F)c2)C(=O)O)cc1
30 | – | 18 nM | 2.1 nM | – | – | COc1ccccc1-c1ccc(C[C@H](NC(=O)C2(c3ccc(=O)n(C)c3)CCCC2)C(=O)O)cc1
31 | – | – | 44.9 nM | – | – | COc1ccccc1-c1ccc(C[C@H](NC(=O)Cc2ccc([N+](=O)[O-])cc2)C(=O)O)cc1
32 | 17% | 49 nM | 0.7 nM | 150 min | > 100 mL/min/kg | COc1ccccc1-c1ccc(C[C@H](NC(=O)C2(c3ccncc3)CCCC2)C(=O)O)cc1
33 | – | – | 8 nM | – | – | COc1ccccc1-c1ccc(C[C@H](NC(=O)Cc2c(Cl)cccc2Cl)C(=O)O)cc1
34 | – | – | 30.9 nM | – | – | COc1ccccc1-c1ccc(C[C@H](NC(=O)Cc2cccc(C)c2)C(=O)O)cc1
35 | 1% | 22 nM | 1.2 nM | 12 min | > 100 mL/min/kg | COc1ccccc1-c1ccc(C[C@H](NC(=O)C2(c3cnccc3C)CCCC2)C(=O)O)cc1
36 | – | – | 262 nM | – | – | COc1ccccc1-c1ccc(C[C@H](NC(C)=O)C(=O)O)cc1
37 | 94% | – | 14.1 nM | 120 min | 7.5 mL/min/kg | COc1ccccc1-c1ccc(C[C@H](NC(=O)C(C)(C)c2ccccc2)C(=O)O)cc1
38 | – | – | 129 nM | – | – | COc1ccccc1-c1ccc(C[C@H](NC(=O)Cc2ccc(F)cc2)C(=O)O)cc1
39 | – | – | 90.7 nM | – | – | COc1ccccc1-c1ccc(C[C@H](NC(=O)C2(c3ccccc3)CC2)C(=O)O)cc1
40 | – | – | 64.9 nM | – | – | COc1ccccc1-c1ccc(C[C@H](NC(=O)Cc2cccc([N+](=O)[O-])c2)C(=O)O)cc1
41 | – | – | 328 nM | – | – | COc1ccccc1-c1ccc(C[C@H](NC(=O)Cc2cccc(Cl)c2)C(=O)O)cc1
42 | – | 180 nM | 3.2 nM | – | – | COc1ccccc1-c1ccc(C[C@H](NC(=O)C2(c3ccc[n+]([O-])c3)CCCC2)C(=O)O)cc1
43 | 11% | 44 nM | 1.5 nM | 36 min | > 100 mL/min/kg | COc1ccccc1-c1ccc(C[C@H](NC(=O)C2(c3cccnc3C)CCCC2)C(=O)O)cc1
44 | < 1% | 94 nM | 0.5 nM | – | > 100 mL/min/kg | COc1ccccc1-c1ccc(C[C@H](NC(=O)C2(c3cccnc3)CCOCC2)C(=O)O)cc1
45 | – | 165 nM | 1.6 nM | – | – | COc1ccccc1-c1ccc(C[C@H](NC(=O)C2(c3cncc(Br)c3)CCCC2)C(=O)O)cc1

Row | Compound | bioavailability [1] | IC50 (Integrin alpha-4/beta-7) | IC50 [2] | half-life [3] | clearance [4]
46 | COc1ccccc1-c1ccc(C[C@H](NC(=O)C2(c3cccnc3)CCNCC2)C(=O)O)cc1 | – | 83 nM | 5.1 nM | – | –
47 | COc1ccccc1-c1ccc(C[C@H](NC(=O)C2(c3cccnc3)CCN(C)CC2)C(=O)O)cc1 | – | 51 nM | 1 nM | – | –
